Assay results reported in patent publication US6706740B2, “Fungicidal heterocyclic aromatic amides and their compositions, methods of use and preparation” (Dow AgroSciences LLC, priority 1999, dated 2004).
Like-named read-outs stand apart in the source and are kept apart here.

How the values were obtained:
[1] = tested on: Puccinia recondita—PUCCRT; assay: Brown Rust of Wheat, in vivo whole plant, 24 Hour Protectant; conditions: for pest or weed control at 100 ppm: Puccinia, read-out: PUCCRT in vivo 1 Day Protectant
[2] = tested on: Leptosphaeria nodorum—LEPTNO; assay: Glume Blotch of Wheat, in vivo whole plant, 24 Hour Protectant; conditions: for pest or weed control at 100 ppm: Leptosphaeria, read-out: LEPTNO in vivo 1 Day Protectant
Septoria tritici—SEPTTR = assay: Leaf Blotch of Wheat, in vivo whole plant, 24 Hour Protectant; conditions: for pest or weed control at 100 ppm: Zymoseptoria tritici, 24 h, read-out: SEPTTR in vivo 1 Day Protectant
Ustilago maydis (USTIMA) = assay: microbe, parasite or virus in culture; format: cell-based; conditions: Mycosarcoma maydis, read-out: USTIMA in vitro Growth Inhibition
[3] = tested on: Rhizoctonia solani (RHIZSO); assay: microbe, parasite or virus in culture; format: cell-based; conditions: Rhizoctonia solani, read-out: RHIZSO in vitro Growth Inhibition
[4] = tested on: Phytophthora infestans—PHYTIN; assay: whole plant or invertebrate; format: in vivo; conditions: Phytophthora, in Solanum lycopersicum, 24 h, read-out: PHYTIN in vivo 1 Day Protectant
[5] = tested on: Phytophthora infestans (PHYTIN); assay: microbe, parasite or virus in culture; format: cell-based; conditions: Phytophthora infestans, read-out: PHYTIN in vitro Growth Inhibition
[6] = tested on: Mycosphaerella graminicola (Septoria tritici—SEPTTR); assay: In vitro fungal growth inhibition, Mycosphaerella graminicola (SEPTTR); format: cell-based; conditions: Zymoseptoria tritici, read-out: SEPTTR in vitro Growth Inhibition
[7] = tested on: Magnaporthe grisea (Pyricularia oryzae—PYRIOR); assay: microbe, parasite or virus in culture; format: cell-based; conditions: Pyricularia oryzae, read-out: PYRIOR in vitro Growth Inhibition
Erysiphe graminis—ERYSGT = assay: Powdery Mildew of Wheat, in vivo whole plant, 24 Hour Protectant; conditions: for pest or weed control at 100 ppm: Erysiphe, read-out: ERYSGT in vivo 1 Day Protectant
[8] = tested on: Stagonospora nodorum (Leptosphaeria nodorum—LEPTNO); assay: In vitro fungal growth inhibition, Stagonospora nodorum (LEPTNO); format: cell-based; conditions: Leptosphaeria, read-out: LEPTNO in vitro Growth Inhibition
[9] = 100 ppm spray, wheat, 24 hour protectant, % control of fungal infection vs untreated plants
[10] = 100 ppm spray, wheat, 24 hour protectant, control of fungal infection vs untreated plants
[11] = wheat plants sprayed at 100 ppm, inoculated after 24 hours, control of fungal infection vs untreated plants
[12] = 100 ppm spray, 24 hour protectant, wheat, control of fungal infection vs untreated plants

Row | Compound | inhibition at 25 ppm (Ustilago maydis (USTIMA)) | inhibition at 25 ppm [3] | pest or weed control at 100 ppm [4] | inhibition at 25 ppm [5] | inhibition at 25 ppm ([6]; 25 ppm in growth medium) | inhibition at 25 ppm [7] | inhibition at 25 ppm ([8]; 25 ppm in growth medium) | pest or weed control at 100 ppm [1, 11] | inhibition at 25 ppm ([6]; 25 ppm in the growth medium) | pest or weed control at 100 ppm (Erysiphe graminis—ERYSGT; [11]) | inhibition at 25 ppm ([8]; 25 ppm in the growth medium) | other results
1 | COc1ccnc(C(=O)N[C@H]2COC(=O)[C@H](Cc3ccccc3)[C@@H](OC(=O)C(C)C)[C@H](C)OC2=O)c1OC(=O)C(C)(C)C [Compound 605] | < 80% | < 80% | < 25% | < 80% | < 80% | < 80% | < 80% | – | – | – | – | PUCCRT in vivo 1 Day Protectant [1, 9]: + +; LEPTNO in vivo 1 Day Protectant [2, 9]: + +; SEPTTR in vivo 1 Day Protectant (Septoria tritici—SEPTTR; [9]): + +; pest or weed control at 100 ppm (Erysiphe graminis—ERYSGT; [9]): < 25%
2 | COc1ccccc1Oc1ccc(NC(=O)c2nccc(OC)c2O)cc1 [Compound 433] | < 80% | < 80% | < 25% | < 80% | > 80% | < 80% | < 80% | – | – | – | – | pest or weed control at 100 ppm [1, 10]: < 25%; pest or weed control at 100 ppm [2, 10]: < 25%; pest or weed control at 100 ppm (Septoria tritici—SEPTTR; [10]): < 25%; pest or weed control at 100 ppm (Erysiphe graminis—ERYSGT; [10]): < 25%
3 | COc1ccnc(C(=O)NC2CC(C)(C)C=CC=C2C)c1OC(C)=O (stereo not drawn) [Compound 579] | < 80% | < 80% | < 25% | < 80% | – | < 80% | – | < 25% | < 80% | < 25% | < 80% | pest or weed control at 100 ppm [2, 11]: < 25%; SEPTTR in vivo 1 Day Protectant (Septoria tritici—SEPTTR; [11]): + +
4 | C[C@H]1C2CC([C@H]3CCC[C@@H]23)[C@@H]1NC(=O)c1ncccc1O (stereo partly drawn) [Compound 207] | < 80% | < 80% | < 25% | < 80% | > 80% | > 80% | > 80% | – | – | – | – | pest or weed control at 100 ppm [1, 12]: < 25%; pest or weed control at 100 ppm [2, 12]: < 25%; pest or weed control at 100 ppm (Septoria tritici—SEPTTR; [12]): < 25%; pest or weed control at 100 ppm (Erysiphe graminis—ERYSGT; [12]): < 25%
5 | COCCC(=O)Oc1c(OC)ccnc1C(=O)Nc1ccc(Sc2cccc(C(F)(F)F)c2)cc1 [Compound 712] | < 80% | < 80% | < 25% | < 80% | > 80% | > 80% | > 80% | – | – | – | – | PUCCRT in vivo 1 Day Protectant [1, 9]: + +; pest or weed control at 100 ppm [2, 9]: 25 to 74%; SEPTTR in vivo 1 Day Protectant (Septoria tritici—SEPTTR; [9]): + +; ERYSGT in vivo 1 Day Protectant (Erysiphe graminis—ERYSGT; [9]): + +
6 | COc1ccnc(C(=O)N[C@H]2COC(=O)[C@H](Cc3ccccc3)[C@@H](OC(=O)NC(C)(C)C)[C@H](C)OC2=O)c1O [Compound 400] | < 80% | < 80% | < 25% | < 80% | < 80% | > 80% | < 80% | – | – | – | – | pest or weed control at 100 ppm [1, 10]: 25 to 74%; LEPTNO in vivo 1 Day Protectant [2, 10]: + +; pest or weed control at 100 ppm (Septoria tritici—SEPTTR; [10]): 25 to 74%; pest or weed control at 100 ppm (Erysiphe graminis—ERYSGT; [10]): 25 to 74%
7 | O=C(Nc1cccc(Oc2ccc(C(F)(F)F)cc2)c1)c1nc(Br)ccc1O [Compound 496] | < 80% | < 80% | < 25% | < 80% | – | < 80% | – | 25 to 74% | < 80% | < 25% | < 80% | pest or weed control at 100 ppm [2, 11]: < 25%; pest or weed control at 100 ppm (Septoria tritici—SEPTTR; [11]): 25 to 74%
8 | CC(C)C(=O)O[C@H]1[C@H](C)OC(=O)[C@@H](NC(=O)c2nccnc2O)COC(=O)[C@@H]1Cc1ccccc1 [Compound 534] | < 80% | < 80% | < 25% | > 80% | – | > 80% | – | 25 to 74% | > 80% | < 25% | > 80% | LEPTNO in vivo 1 Day Protectant [2, 11]: + +; pest or weed control at 100 ppm (Septoria tritici—SEPTTR; [11]): 25 to 74%
9 | COc1ccnc(C(=O)Nc2cccc(Oc3ccc(C)cc3)c2)c1O [Compound 414] | < 80% | < 80% | 25 to 74% | < 80% | > 80% | > 80% | > 80% | – | – | – | – | pest or weed control at 100 ppm [1, 10]: 25 to 74%; pest or weed control at 100 ppm [2, 10]: < 25%; pest or weed control at 100 ppm (Septoria tritici—SEPTTR; [10]): < 25%; pest or weed control at 100 ppm (Erysiphe graminis—ERYSGT; [10]): < 25%
10 | CCC1(C)CC(NC(=O)c2nccc(OC)c2O)CC(C)(C)C1 (stereo not drawn) [Compound 251] | < 80% | < 80% | 25 to 74% | > 80% | > 80% | < 80% | > 80% | – | – | – | – | PUCCRT in vivo 1 Day Protectant [1, 12]: + +; LEPTNO in vivo 1 Day Protectant [2, 12]: + +; SEPTTR in vivo 1 Day Protectant (Septoria tritici—SEPTTR; [12]): + +; pest or weed control at 100 ppm (Erysiphe graminis—ERYSGT; [12]): < 25%
11 | COC(=O)C(COC(=O)C(COC(=O)C(C)C)Cc1ccccc1)NC(=O)c1nccc(OC)c1OC(C)=O (stereo not drawn) [Compound 587] | < 80% | < 80% | < 25% | < 80% | – | < 80% | – | 25 to 74% | < 80% | < 25% | < 80% | pest or weed control at 100 ppm [2, 11]: 25 to 74%; pest or weed control at 100 ppm (Septoria tritici—SEPTTR; [11]): 25 to 74%
12 | COc1ccnc(C(=O)N[C@H]2COC(=O)[C@H](Cc3ccccc3)[C@@H](OC(=O)C(C)C)[C@H](C)OC2=O)c1OC(=O)c1cccs1 [Compound 674] | < 80% | < 80% | < 25% | < 80% | > 80% | < 80% | > 80% | – | – | – | – | PUCCRT in vivo 1 Day Protectant [1, 9]: + +; pest or weed control at 100 ppm [2, 9]: 25 to 74%; SEPTTR in vivo 1 Day Protectant (Septoria tritici—SEPTTR; [9]): + +; pest or weed control at 100 ppm (Erysiphe graminis—ERYSGT; [9]): < 25%
13 | COC(=O)C(COC(=O)CCc1ccccc1)NC(=O)c1nccc(OC)c1O (stereo not drawn) [Compound 344] | < 80% | < 80% | < 25% | < 80% | < 80% | < 80% | > 80% | – | – | – | – | pest or weed control at 100 ppm [1, 10]: < 25%; pest or weed control at 100 ppm [2, 10]: 25 to 74%; pest or weed control at 100 ppm (Septoria tritici—SEPTTR; [10]): 25 to 74%; pest or weed control at 100 ppm (Erysiphe graminis—ERYSGT; [10]): < 25%
14 | COc1ccnc(C(=O)NC2CC(C)(C)C=C[C@@H](C)[C@@H]2C)c1OC(C)=O (stereo partly drawn) [Compound 578] | < 80% | < 80% | < 25% | < 80% | – | < 80% | – | < 25% | < 80% | < 25% | < 80% | pest or weed control at 100 ppm [2, 11]: 25 to 74%; pest or weed control at 100 ppm (Septoria tritici—SEPTTR; [11]): 25 to 74%
15 | COc1ccnc(C(=O)NC2CC(C)(C)C=CC=C2C)c1O (stereo not drawn) [Compound 278] | < 80% | < 80% | < 25% | < 80% | < 80% | < 80% | < 80% | – | – | – | – | pest or weed control at 100 ppm [1, 12]: 25 to 74%; pest or weed control at 100 ppm [2, 12]: 25 to 74%; pest or weed control at 100 ppm (Septoria tritici—SEPTTR; [12]): 25 to 74%; pest or weed control at 100 ppm (Erysiphe graminis—ERYSGT; [12]): < 25%
